In publication PMC7116837 (Nature microbiology, 2021):

How the values were obtained:
[1] = biological target: T1, VSGsur (Variant Surface Glycoprotein VSGsur) (Trypanosoma brucei, UniProt A0A291L8F4); experiment: crystal structure; format: binding
T1 sequence (A0A291L8F4 30-408): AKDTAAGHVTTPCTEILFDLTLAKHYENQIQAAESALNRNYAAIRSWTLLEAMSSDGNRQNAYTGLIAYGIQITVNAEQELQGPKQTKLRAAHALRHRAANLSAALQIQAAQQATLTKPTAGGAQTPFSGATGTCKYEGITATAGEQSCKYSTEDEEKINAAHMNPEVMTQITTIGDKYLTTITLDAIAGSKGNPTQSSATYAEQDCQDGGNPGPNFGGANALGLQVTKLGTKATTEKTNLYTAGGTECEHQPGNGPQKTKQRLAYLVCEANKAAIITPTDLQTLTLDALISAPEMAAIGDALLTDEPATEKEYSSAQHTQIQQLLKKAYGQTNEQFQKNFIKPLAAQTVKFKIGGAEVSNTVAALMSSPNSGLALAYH

[2] = biological target: T2, VSGsur (Variant Surface Glycoprotein VSGsur) (Trypanosoma brucei, UniProt A0A291L8F4); experiment: ITC and […] Å co-crystal structure; format: binding
T2 sequence (A0A291L8F4 30-475): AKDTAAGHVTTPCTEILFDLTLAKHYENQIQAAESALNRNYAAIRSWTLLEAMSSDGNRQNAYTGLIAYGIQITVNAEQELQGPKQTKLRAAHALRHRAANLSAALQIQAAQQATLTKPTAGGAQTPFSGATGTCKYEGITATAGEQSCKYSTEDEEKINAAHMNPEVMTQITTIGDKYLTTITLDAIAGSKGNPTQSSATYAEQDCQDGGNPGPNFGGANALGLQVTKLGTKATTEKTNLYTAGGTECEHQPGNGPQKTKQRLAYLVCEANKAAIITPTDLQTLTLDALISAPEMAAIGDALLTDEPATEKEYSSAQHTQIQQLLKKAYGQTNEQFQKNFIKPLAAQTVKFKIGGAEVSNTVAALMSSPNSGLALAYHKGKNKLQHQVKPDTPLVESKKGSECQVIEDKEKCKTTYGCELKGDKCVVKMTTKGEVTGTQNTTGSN

[3] = biological target: Variant Surface Glycoprotein VSG13, N-terminal domain (T. brucei brucei Lister 427); experiment: crystal structure
[4] = biological target: Variant Surface Glycoprotein VSGsur, N-terminal domain (T. brucei rhodesiense); experiment: crystal structure

With `Nc1c(I)c(C(=O)O)c(I)c(C(=O)O)c1I` [I3C, 5-amino-2,4,6-triiodoisophthalic acid] the “crystal structure (50 mM overnight soak, phasing compound)” value [1] was “occupies the same position as the suramin benzene groups, stacking similarly with H122”.

For `Cc1ccc(C(=O)Nc2ccc(S(=O)(=O)O)c3cc(S(=O)(=O)O)cc(S(=O)(=O)O)c23)cc1NC(=O)c1cccc(NC(=O)Nc2cccc(C(=O)Nc3cc(C(=O)Nc4ccc(S(=O)(=O)O)c5cc(S(=O)(=O)O)cc(S(=O)(=O)O)c45)ccc3C)c2)c1` [suramin], the Kd [2] was 234 ± 28 nM.

“Variant Surface Glycoprotein VSG13, N-terminal domain (domain or fragment)” showed a stoichiometry N [3] of 2.

“Variant Surface Glycoprotein VSGsur, N-terminal domain (domain or fragment)” gave a stoichiometry N [4] of 2.
